Holding throughout (format): in vivo
Test [1] deals with Alopecurus myosuroides (ALOMY). Kind of test: Glasshouse herbicide test, post-emergence. Conditions: 1000 g/h, evaluated after 13 days, five point scale. On the procedure:
(§1) Seeds of a variety of test species are sown in standard soil in pots Alopecurus myosuroides (ALOMY), Amaranthus retoflexus (AMARE), Setaria faberi (SETFA), Echinochloa crus-galli (ECHCG), Lolium perenne (LOLPE), Solanum nigrum (SOLNI), Stellaria media (STEME) and Digitaria sanguinalis (DIGSA). After cultivation for one day (pre-emergence) or after 8 days cultivation (post-emergence) under controlled conditions in a glasshouse (at 24/16° C., day/night; 14 hours light; 65% humidity), the plants are sprayed with an aqueous spray solution derived from the formulation of the technical active ingredient in acetone/water (50:50) solution containing 0.5% Tween 20 (polyoxyethelyene sorbitan monolaurate, CAS RN 9005-64-5). Compounds are applied at 1000 g/h. The test plants are then grown in a glasshouse under controlled conditions in a glasshouse (at 24/16° C., day/night; 14 hours light; 65% humidity) and watered twice daily. After 13 days for pre and post-emergence, the test is evaluated for the percentage damage caused to the plant. The biological activities are shown in the following table on a five point scale (5=80-100%; 4=60-79%; 3=40-59%; 2=20-39%; 1=0-19%).

The subject of test [2] is Amaranthus retoflexus (AMARE). The test can be described thus: Glasshouse herbicide test, post-emergence. Conditions: 1000 g/h, evaluated after 13 days, five point scale, second table. On the procedure:
as §1

Test [3] relates to Echinochloa crus-galli (ECHCG). Kind of test: Glasshouse herbicide test, post-emergence. The settings on record: 1000 g/h, evaluated after 13 days, five point scale. On the procedure: as §1
In test [4] the test system is IPOHE. The test can be described thus: Glasshouse herbicide test, post-emergence. The settings on record: 1000 g/h, evaluated after 13 days, five point scale. As to the method: [The procedure below names another species; the source lists this species under the same test.] as §1
Test [5] concerns Setaria faberi (SETFA). Kind of test: Glasshouse herbicide test, post-emergence. The settings on record: 1000 g/h, evaluated after 13 days, five point scale. On the procedure: as §1
For test [6], the system named is Solanum nigrum (SOLNI). The test can be described thus: Glasshouse herbicide test, post-emergence. The settings on record: 1000 g/h, evaluated after 13 days, five point scale. On the procedure: as §1
For test [7], the system named is Alopecurus myosuroides (ALOMY). The test can be described thus: Glasshouse herbicide test, pre-emergence. Conditions: 1000 g/h, evaluated after 13 days, five point scale. As to the method: as §1
For test [8], the system named is Amaranthus retoflexus (AMARE). The test can be described thus: Glasshouse herbicide test, pre-emergence. The settings on record: 1000 g/h, evaluated after 13 days, five point scale, second table. On the procedure:
as §1

Test [9] deals with Echinochloa crus-galli (ECHCG). The test can be described thus: Glasshouse herbicide test, pre-emergence. The settings on record: 1000 g/h, evaluated after 13 days, five point scale. On the procedure:
as §1

In test [10] the test system is IPOHE. The test can be described thus: Glasshouse herbicide test, pre-emergence. The settings on record: 1000 g/h, evaluated after 13 days, five point scale. As to the method: [The procedure below names another species; the source lists this species under the same test.] as §1
In test [11] the test system is Setaria faberi (SETFA). Kind of test: Glasshouse herbicide test, pre-emergence. Conditions: 1000 g/h, evaluated after 13 days, five point scale. As to the method:
as §1

Test [12] concerns Solanum nigrum (SOLNI). The test can be described thus: Glasshouse herbicide test, pre-emergence. The settings on record: 1000 g/h, evaluated after 13 days, five point scale. As to the method: as §1

As to `Cn1cnnc1NC(=O)c1ccc(C(F)(F)F)cc1S(C)(=O)=O` [Compound 1.008], the “percentage damage caused to the plant, ALOMY, POST Application” value in [1] is 3 (3=40-59%). In test [2], the “percentage damage caused to the plant, AMARE, POST Application” value is 5 (5=80-100%). Moreover, in [3], the “percentage damage caused to the plant, ECHCG, POST Application” value was 4 (4=60-79%). For the same molecule, in test [4], the “percentage damage caused to the plant, IPOHE, POST Application” value is listed as 5 (5=80-100%). Also, the “percentage damage caused to the plant, SETFA, POST Application” value in test [5] is on record as 3 (3=40-59%). Also, the “percentage damage caused to the plant, SOLNI, POST Application” value in [6] is on record as 5 (5=80-100%). Besides, the “percentage damage caused to the plant, ALOMY, PRE Application” value in test [7] is 2 (2=20-39%). For the same molecule, the “percentage damage caused to the plant, AMARE, PRE Application” value in [8] was 5 (5=80-100%). In addition, the “percentage damage caused to the plant, ECHCG, PRE Application” value in test [9] is on record as 5 (5=80-100%). In addition, in [10], the “percentage damage caused to the plant, IPOHE, PRE Application” value was 4 (4=60-79%). For the same molecule, the “percentage damage caused to the plant, SETFA, PRE Application” value in test [11] is reported as 3 (3=40-59%). The “percentage damage caused to the plant, SOLNI, PRE Application” value in test [12] is 5 (5=80-100%).
In the case of `Cc1nnc(NC(=O)c2ccc(C(F)(F)F)cc2S(C)(=O)=O)n1C` [Compound 1.009], the “percentage damage caused to the plant, ALOMY, POST Application” value in test [1] was 2 (2=20-39%). Moreover, the “percentage damage caused to the plant, AMARE, POST Application” value in test [2] is reported as 2 (2=20-39%). In addition, the “percentage damage caused to the plant, ECHCG, POST Application” value in [3] is listed as 1 (1=0-19%). Further, the “percentage damage caused to the plant, IPOHE, POST Application” value in [4] is listed as 3 (3=40-59%). Besides, the “percentage damage caused to the plant, SETFA, POST Application” value in test [5] is given as 1 (1=0-19%). For the same molecule, the “percentage damage caused to the plant, SOLNI, POST Application” value in test [6] was 4 (4=60-79%). Also, the “percentage damage caused to the plant, ALOMY, PRE Application” value in [7] was 1 (1=0-19%). Moreover, the “percentage damage caused to the plant, AMARE, PRE Application” value in test [8] is on record as 4 (4=60-79%). Besides, the “percentage damage caused to the plant, ECHCG, PRE Application” value in test [9] is reported as 1 (1=0-19%). The “percentage damage caused to the plant, IPOHE, PRE Application” value in test [10] is on record as 1 (1=0-19%). For the same molecule, the “percentage damage caused to the plant, SETFA, PRE Application” value in test [11] was 1 (1=0-19%). The “percentage damage caused to the plant, SOLNI, PRE Application” value in test [12] was 2 (2=20-39%).
Consider `CCc1nnc(NC(=O)c2ccc(C(F)(F)F)cc2S(C)(=O)=O)n1C` [Compound 1.010], for which the “percentage damage caused to the plant, ALOMY, POST Application” value in test [1] is 2 (2=20-39%). The “percentage damage caused to the plant, AMARE, POST Application” value in [2] was 1 (1=0-19%). Moreover, the “percentage damage caused to the plant, ECHCG, POST Application” value in test [3] is reported as 2 (2=20-39%). Moreover, in [4], the “percentage damage caused to the plant, IPOHE, POST Application” value is listed as 2 (2=20-39%). Besides, the “percentage damage caused to the plant, SETFA, POST Application” value in test [5] is on record as 2 (2=20-39%). Also, the “percentage damage caused to the plant, SOLNI, POST Application” value in test [6] is given as 2 (2=20-39%). Also, in test [7], the “percentage damage caused to the plant, ALOMY, PRE Application” value is on record as 1 (1=0-19%). For the same molecule, in test [8], the “percentage damage caused to the plant, AMARE, PRE Application” value is listed as 1 (1=0-19%). The “percentage damage caused to the plant, ECHCG, PRE Application” value in [9] is 1 (1=0-19%). Also, the “percentage damage caused to the plant, IPOHE, PRE Application” value in test [10] is given as 1 (1=0-19%). In addition, the “percentage damage caused to the plant, SETFA, PRE Application” value in test [11] was 1 (1=0-19%). Moreover, the “percentage damage caused to the plant, SOLNI, PRE Application” value in test [12] was 1 (1=0-19%).
`CCn1cnnc1NC(=O)c1ccc(C(F)(F)F)cc1S(C)(=O)=O` [Compound 1.011]: in test [1], the “percentage damage caused to the plant, ALOMY, POST Application” value is listed as 2 (2=20-39%). In test [2], the “percentage damage caused to the plant, AMARE, POST Application” value is listed as 5 (5=80-100%). Further, the “percentage damage caused to the plant, ECHCG, POST Application” value in test [3] is listed as 4 (4=60-79%). In addition, the “percentage damage caused to the plant, IPOHE, POST Application” value in [4] is given as 5 (5=80-100%). The “percentage damage caused to the plant, SETFA, POST Application” value in test [5] is 2 (2=20-39%). Also, in [6], the “percentage damage caused to the plant, SOLNI, POST Application” value is 5 (5=80-100%). Besides, the “percentage damage caused to the plant, ALOMY, PRE Application” value in test [7] is 1 (1=0-19%). Also, the “percentage damage caused to the plant, AMARE, PRE Application” value in [8] is listed as 5 (5=80-100%). For the same molecule, the “percentage damage caused to the plant, ECHCG, PRE Application” value in test [9] is listed as 4 (4=60-79%). For the same molecule, the “percentage damage caused to the plant, IPOHE, PRE Application” value in test [10] is reported as 4 (4=60-79%). The “percentage damage caused to the plant, SETFA, PRE Application” value in [11] was 2 (2=20-39%). For the same molecule, in test [12], the “percentage damage caused to the plant, SOLNI, PRE Application” value was 5 (5=80-100%).

For the origin of these results see patent US20150065345A1, “1,2,4 - TRIAZOLE DERIVATIVES AS HERBICIDALS” (SYNGENTA LIMITED, priority 2012, published 2015).
